Results published in ChEMBL document CHEMBL5257018, “Novel Strategies for the Treatment of Pseudomonas aeruginosa Infections” (J Med Chem, 2016).
In brackets after ≈: the same amount, converted by molar mass.

Columns and labels:
[1] = Inhibition of elastase (unknown origin); design: species or system Homo sapiens
[2] = Antagonist activity at Pseudomonas aeruginosa MvfR
[3] = Inhibition of quorum sensing system in Pseudomonas aeruginosa PAO1 assessed as decrease in pqsR expression by PCR analysis
Elastase [4] = target: T1, Elastase (Pseudomonas aeruginosa (strain ATCC 15692 / PAO1 / 1C / PRS 101 / LMG12228), UniProt P14756); assay: Inhibition of Pseudomonas aeruginosa LasB elastase using aminobenzoyl-Ala-Gly-Leu-Ala-p-nitro-benzyl-amide as substrate b microtiter-based fluorimetric assay
T1 sequence (P14756 whole entry): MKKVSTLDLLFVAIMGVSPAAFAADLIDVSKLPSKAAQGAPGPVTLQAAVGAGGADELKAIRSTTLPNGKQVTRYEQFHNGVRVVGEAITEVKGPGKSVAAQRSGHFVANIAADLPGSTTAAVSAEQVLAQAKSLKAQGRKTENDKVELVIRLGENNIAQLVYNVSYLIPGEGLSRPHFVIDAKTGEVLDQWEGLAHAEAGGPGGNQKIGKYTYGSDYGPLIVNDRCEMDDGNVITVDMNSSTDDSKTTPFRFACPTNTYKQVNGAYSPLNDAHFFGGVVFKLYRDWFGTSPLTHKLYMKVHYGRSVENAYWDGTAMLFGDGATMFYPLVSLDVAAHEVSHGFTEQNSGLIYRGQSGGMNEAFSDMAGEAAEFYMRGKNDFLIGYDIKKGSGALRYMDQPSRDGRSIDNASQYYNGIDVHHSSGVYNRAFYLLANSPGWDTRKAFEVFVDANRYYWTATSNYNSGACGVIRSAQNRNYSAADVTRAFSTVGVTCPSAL

Elastase [5] = target: T1, Elastase; assay: Inhibition of Pseudomonas aeruginosa LasB elastase
Pseudomonas aeruginosa [6] = assay: Antimicrobial activity against Pseudomonas aeruginosa PA14 assessed as reduction in bacterial growth; assay type: functional
Pseudomonas aeruginosa [7] = assay: Antimicrobial activity against Pseudomonas aeruginosa assessed as reduction in bacterial growth; assay type: functional, organism-based
Pseudomonas aeruginosa [8] = assay: Antimicrobial activity against Pseudomonas aeruginosa infected in mouse pneumonia model administered twice a day measured after 48 hrs; assay type: functional
Pseudomonas aeruginosa [9] = assay: Antibacterial activity against Pseudomonas aeruginosa PAO1 infected in Caenorhabditis elegans worms assessed as worms survival at 50 uM measured after 24 hrs; assay type: functional
Pseudomonas aeruginosa [10] = assay: Inhibition of biofilm formation in Pseudomonas aeruginosa assessed as reduction in biofilm formation; assay type: functional, organism-based
Pseudomonas aeruginosa [11] = assay: Antibiofilm activity against Pseudomonas aeruginosa assessed as reduction in biofilm formation; assay type: functional, organism-based
Pseudomonas aeruginosa [12] = assay: Antibiofilm activity against Pseudomonas aeruginosa assessed as reduction in biofilm formation at 100 uM measured after 24 hrs; assay type: functional; design: scale not given: the % may be the effect or the level left
Hexosaminidase D = target: T2, Hexosaminidase D (Homo sapiens, UniProt Q8WVB3); assay: Inhibition of human recombinant beta-hexosaminidase
T2 sequence (Q8WVB3 whole entry): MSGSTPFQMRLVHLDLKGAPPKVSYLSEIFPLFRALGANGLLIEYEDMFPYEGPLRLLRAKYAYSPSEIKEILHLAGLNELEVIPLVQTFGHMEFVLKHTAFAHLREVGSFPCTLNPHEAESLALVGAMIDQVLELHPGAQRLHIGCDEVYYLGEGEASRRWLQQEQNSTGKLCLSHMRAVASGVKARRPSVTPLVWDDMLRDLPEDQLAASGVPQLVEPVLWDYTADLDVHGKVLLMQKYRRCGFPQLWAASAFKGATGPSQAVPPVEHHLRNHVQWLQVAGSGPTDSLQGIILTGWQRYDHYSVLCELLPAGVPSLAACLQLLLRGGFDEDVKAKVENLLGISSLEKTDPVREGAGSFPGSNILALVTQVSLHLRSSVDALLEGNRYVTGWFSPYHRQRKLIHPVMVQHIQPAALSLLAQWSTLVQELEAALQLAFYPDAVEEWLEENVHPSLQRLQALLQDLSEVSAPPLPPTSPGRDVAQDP

Pseudomonas aeruginosa [13] = assay: Antibacterial activity against multidrug resistant Pseudomonas aeruginosa assessed as reduction in bacterial growth; assay type: functional
Pseudomonas aeruginosa [14] = assay: Antibiofilm activity against Pseudomonas aeruginosa PAO1 assessed as inhibition of biofilm formation; assay type: functional, organism-based
Pseudomonas aeruginosa [15] = assay: Antibiofilm activity against Pseudomonas aeruginosa PA14 assessed as inhibition of biofilm formation; assay type: functional, organism-based
[16] = Binding affinity to D-galactose (unknown origin) assessed as dissociation constant
Pseudomonas aeruginosa [17] = assay: Antibacterial activity against Pseudomonas aeruginosa PAO1 infected in Caenorhabditis elegans worms assessed as worms survival rate at 880 uM measured after 72 hrs; assay type: functional
Pseudomonas aeruginosa [18] = assay: Inhibition of Pseudomonas aeruginosa PAO1 Pyocyanin at 440 uM relative to control
[19] = target: T3, Transcriptional activator protein LasR (Pseudomonas aeruginosa (strain ATCC 15692 / PAO1 / 1C / PRS 101 / LMG12228)) (UniProt P25084); assay: Inhibition of Pseudomonas aeruginosa PAO1 LasR at 440 uM relative to control
T3 sequence (whole entry): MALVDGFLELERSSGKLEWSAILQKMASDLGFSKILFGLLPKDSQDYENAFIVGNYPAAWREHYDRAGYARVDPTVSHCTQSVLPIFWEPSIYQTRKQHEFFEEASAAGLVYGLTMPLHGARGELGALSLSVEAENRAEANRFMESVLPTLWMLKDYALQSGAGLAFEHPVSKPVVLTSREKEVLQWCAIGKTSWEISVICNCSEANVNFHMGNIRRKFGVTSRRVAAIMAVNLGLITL

[20] = target: Elastase (Pseudomonas aeruginosa (strain ATCC 15692 / PAO1 / 1C / PRS 101 / LMG12228)) (UniProt P14756); assay: Inhibition of Pseudomonas aeruginosa PAO1 elastase at 250 uM relative to control
Chain of Elastase (Pseudomonas aeruginosa (strain ATCC 15692 / PAO1 / 1C / PRS 101 / LMG12228)) (P14756 198-498 limits assumed): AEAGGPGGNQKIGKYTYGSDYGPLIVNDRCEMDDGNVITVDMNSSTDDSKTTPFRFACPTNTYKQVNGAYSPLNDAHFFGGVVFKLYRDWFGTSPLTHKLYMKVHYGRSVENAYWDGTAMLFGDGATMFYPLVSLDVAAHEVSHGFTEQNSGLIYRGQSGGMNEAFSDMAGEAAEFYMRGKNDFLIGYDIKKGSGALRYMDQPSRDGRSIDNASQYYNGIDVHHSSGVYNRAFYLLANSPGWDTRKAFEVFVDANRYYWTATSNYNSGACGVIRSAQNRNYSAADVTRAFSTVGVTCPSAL

Pseudomonas aeruginosa [21] = assay: Inhibition of biofilm formation in Pseudomonas aeruginosa PAO1 assessed as reduction in biofilm formation at 250 uM measured for 2 hrs by scanning confocal laser microscopic analysis; assay type: functional
Pseudomonas aeruginosa [22] = assay: Inhibition of Pseudomonas aeruginosa PAO1 Pyocyanin at 250 uM relative to control
Pseudomonas aeruginosa [23] = assay: Inhibition of Pseudomonas aeruginosa PAO1 Rhamnolipid at 250 uM by spectrophotometrical analysis relative to control
Pseudomonas aeruginosa [24] = assay: Antibiofilm activity against Pseudomonas aeruginosa PA14 assessed as inhibition of biofilm formation at 100 uM; assay type: functional; design: scale not given: the % may be the effect or the level left
[25] = Inhibition of Pseudomonas aeruginosa FabI
[26] = target: T4, Acyl-homoserine lactone acylase PvdQ (Pseudomonas aeruginosa (strain LESB58), UniProt Q9I194); assay: Competitive inhibition of Pseudomonas aeruginosa ATCC 15692 pvdQ
T4 sequence (Q9I194 whole entry): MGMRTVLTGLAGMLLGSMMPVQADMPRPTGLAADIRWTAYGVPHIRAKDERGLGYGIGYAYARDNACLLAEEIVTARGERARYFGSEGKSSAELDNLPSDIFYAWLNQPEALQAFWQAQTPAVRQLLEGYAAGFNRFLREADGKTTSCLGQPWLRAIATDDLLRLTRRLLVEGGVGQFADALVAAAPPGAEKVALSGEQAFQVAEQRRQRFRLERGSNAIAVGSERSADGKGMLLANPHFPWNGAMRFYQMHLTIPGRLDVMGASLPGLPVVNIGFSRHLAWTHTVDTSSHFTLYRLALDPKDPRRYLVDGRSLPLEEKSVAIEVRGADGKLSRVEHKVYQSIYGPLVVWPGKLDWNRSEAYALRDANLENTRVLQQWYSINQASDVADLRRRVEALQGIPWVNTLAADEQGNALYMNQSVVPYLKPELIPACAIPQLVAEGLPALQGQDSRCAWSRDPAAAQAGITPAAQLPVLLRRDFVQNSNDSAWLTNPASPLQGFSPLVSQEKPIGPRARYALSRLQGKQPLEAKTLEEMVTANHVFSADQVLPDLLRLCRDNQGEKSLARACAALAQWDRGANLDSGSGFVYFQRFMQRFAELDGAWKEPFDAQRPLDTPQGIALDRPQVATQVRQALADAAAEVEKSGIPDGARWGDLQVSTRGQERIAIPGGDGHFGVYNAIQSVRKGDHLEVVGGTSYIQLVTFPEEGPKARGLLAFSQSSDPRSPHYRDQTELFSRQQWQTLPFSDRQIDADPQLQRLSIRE

[27] = target: T4, Acyl-homoserine lactone acylase PvdQ; assay: Inhibition of wild type Pseudomonas aeruginosa PAO1 pvdQ
[28] = target: T4, Acyl-homoserine lactone acylase PvdQ; assay: Inhibition of Pseudomonas aeruginosa ATCC 15692 pvdQ measured after 5 mins

Question: For COc1cc(/C=C2\S/C(=N\c3ccccc3)N(c3ccccc3)C2=O)cc(OC)c1O, which IC50 [1] is on record?
Answer: The IC50 was 380000 nM.

Question: With CCCCCCCc1[nH]c2ccc([N+](=O)[O-])cc2c(=O)c1C(N)=O as the compound, how does the IC50 [2] read?
Answer: Its IC50 is 2 nM.

Question: What about the IC50 [3] of the same compound?
Answer: The IC50 was 2000 nM.

Question: Which Ki (Elastase [4]) does the source give for NC(=O)[C@H](Cc1ccc(O)cc1)NC(=O)[C@H](Cc1ccccc1)NC(=O)CS here?
Answer: The Ki was 41 nM.

Question: What about the IC50 (Elastase [5]) of the same compound?
Answer: The IC50 was 6000 nM.

Question: With CO[C@H](C(N)=O)[C@H](NC(=O)c1ccc(NC(=O)c2ccc([N+](=O)[O-])cc2)cc1)C(=O)Nc1ccc(C(=O)Nc2ccc(C(=O)Nc3ccc(C(=O)O)cc3OC(C)C)c(O)c2OC(C)C)cc1 as the compound, how does the MIC (Pseudomonas aeruginosa [6]) read?
Answer: The MIC was 3.4 µg/mL (≈ 3.7 µM).

Question: What about the MIC (Pseudomonas aeruginosa [7]) of the same compound?
Answer: The MIC was 1 µg/mL (≈ 1.09 µM).

Question: Which ED50 (Pseudomonas aeruginosa [8]) does the source give for COc1ccc(-c2ccn(CC[C@](C)(C(=O)NO)S(C)(=O)=O)c(=O)c2)c(F)c1 here?
Answer: The ED50 was less than 25 mg/kg.

Question: With O=C(CCCOc1ccc(Br)cc1)NC1CCSC1=O (centres undefined) as the compound, how does the Activity (Pseudomonas aeruginosa [9]) read?
Answer: The Activity was 23%.

Question: What about the IC50 (Pseudomonas aeruginosa [10]) of the same compound?
Answer: The IC50 was 8000 nM.

Question: With COc1ccc2[nH]c(SCc3ccc(C)cc3)nc2c1 as the compound, how does the IC50 (Pseudomonas aeruginosa [11]) read?
Answer: Its IC50 is 46 nM.

Question: And the Activity (Pseudomonas aeruginosa [12])?
Answer: The Activity was 50%.

Question: For C[C@@H](Oc1ccc(Cl)cc1Cl)C(=O)NCc1ccc2c(c1)OCO2, which IC50 (Hexosaminidase D) is on record?
Answer: Its IC50 is 12500 nM.

Question: For CNc1cc(F)cc2c1[nH]c1nc(Sc3cnc(C)nc3)nc(N3C[C@H]4C[C@@H](N(C)C)[C@H]4C3)c12, which MIC (Pseudomonas aeruginosa [13]) is on record?
Answer: Its MIC is 2 µg/mL (≈ 4.18 µM).

Question: Which IC50 (Pseudomonas aeruginosa [14]) does the source give for C/C(=C\c1ccccc1)Cn1cc(CCCCCc2c[nH]c(N)n2)nn1 here?
Answer: The IC50 was 5600 nM.

Question: What about the IC50 (Pseudomonas aeruginosa [15]) of the same compound?
Answer: The IC50 was 530 nM.

Question: For O=C[C@H](O)[C@@H](O)[C@@H](O)[C@H](O)CO [GALACTOSE], which Kd [16] is on record?
Answer: Its Kd is 87500 nM.

Question: Which Activity (Pseudomonas aeruginosa [17]) does the source give for O=C1CNC(=O)CN1 [DIKETOPIPERAZINE] here?
Answer: Its Activity is 66%.

Question: What about the inhibition (Pseudomonas aeruginosa [18]) of the same compound?
Answer: The inhibition was 85%.

Question: What about the inhibition [19] of the same compound?
Answer: Its inhibition is 48%.

Question: Which results are given for CCCCCCCCCC(=O)NC1CCCC1 [N-CYCLOPENTYLDECANAMIDE]?
Answer: inhibition [20]: 77%; inhibition at 250 µM (Pseudomonas aeruginosa [21]): 100%; inhibition (Pseudomonas aeruginosa [22]): 64%; inhibition (Pseudomonas aeruginosa [23]): 87%

Question: For CCCCCCS(=O)(=O)NCCCc1c[nH]c(N)n1, which Activity (Pseudomonas aeruginosa [24]) is on record?
Answer: The Activity was 42%.

Question: For Oc1cc(Cl)ccc1Oc1ccc(Cl)cc1Cl [TRICLOSAN], which IC50 [25] is on record?
Answer: Its IC50 is 200 nM.

Question: Which results are given for N#CC(c1ccc(F)cc1)c1cccc(C(F)(F)F)n1 (centres undefined)?
Answer: Ki [26]: 0.19 nM; IC50 [27]: 19000 nM; IC50 [28]: 1900 nM
